ChEMBL document CHEMBL6153058, “Pyrrolopyrazine Compounds as ERK5 Inhibitors for Treating Cancer” (ACS Med Chem Lett, 2025)

Target: Mitogen-activated protein kinase 7 (Homo sapiens, UniProt Q13164)
Assay: Inhibition of ERK5 in human SN12C cells assessed as reduction in luminescence signal by bright glo reagent based luminescent cell assay

Chain of Mitogen-activated protein kinase 7 (Q13164 whole entry): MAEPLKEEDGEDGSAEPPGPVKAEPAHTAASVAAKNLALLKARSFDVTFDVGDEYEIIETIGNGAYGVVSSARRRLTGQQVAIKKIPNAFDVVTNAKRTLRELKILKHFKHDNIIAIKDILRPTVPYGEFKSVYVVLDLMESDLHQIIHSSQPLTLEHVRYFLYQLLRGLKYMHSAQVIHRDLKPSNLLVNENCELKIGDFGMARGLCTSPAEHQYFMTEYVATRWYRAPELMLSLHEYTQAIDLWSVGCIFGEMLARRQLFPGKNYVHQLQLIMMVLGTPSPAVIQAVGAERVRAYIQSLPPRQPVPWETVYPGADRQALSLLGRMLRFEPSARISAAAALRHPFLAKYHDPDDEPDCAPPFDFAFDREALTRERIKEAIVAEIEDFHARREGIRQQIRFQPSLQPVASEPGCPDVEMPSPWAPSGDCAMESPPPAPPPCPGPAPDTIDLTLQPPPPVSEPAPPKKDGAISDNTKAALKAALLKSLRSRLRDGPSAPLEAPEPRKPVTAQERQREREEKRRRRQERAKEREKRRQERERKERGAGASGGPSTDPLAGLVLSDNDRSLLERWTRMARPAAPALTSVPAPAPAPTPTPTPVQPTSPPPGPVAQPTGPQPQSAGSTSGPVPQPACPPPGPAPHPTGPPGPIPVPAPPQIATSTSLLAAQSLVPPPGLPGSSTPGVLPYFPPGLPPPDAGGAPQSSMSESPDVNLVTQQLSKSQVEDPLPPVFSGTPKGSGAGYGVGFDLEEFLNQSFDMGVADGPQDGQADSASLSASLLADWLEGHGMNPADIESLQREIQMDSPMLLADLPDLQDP

| SMILES | IC50 [nM] |
| --- | --- |
| Nc1cc(OC(F)(F)F)ccc1C(=O)N1CCC(c2c[nH]c3ncc(C4CCOC4)nc23)CC1 (configuration not stated) | 21 |
| Nc1cc(OC(F)(F)F)ccc1C(=O)N1CCC(c2c[nH]c3ncc([C@H]4CC[C@H](O)CC4)nc23)CC1 | 17 |
